What all share (format): cell-based
One experiment addresses hKv1.3 (Homo sapiens, UniProt P22001). As to the kind of experiment: cell-based. The settings on record: Kv1.3 (IWQ) IC50 (nM, Avg).
Experiment [1] has as its system IL-2 secretion from T cells in human whole blood. The settings on record: read-out: WB (IL-2) IC50 (nM, Avg).
The test system of experiment [2] is IFN-g secretion from T cells in human whole blood. The settings on record: read-out: WB (IFNg) IC50 (nM, Avg).

Experimental findings from patent US20120121591A1 (priority 2009, published 2012) are described below.

Sequence of hKv1.3 (P22001 whole entry): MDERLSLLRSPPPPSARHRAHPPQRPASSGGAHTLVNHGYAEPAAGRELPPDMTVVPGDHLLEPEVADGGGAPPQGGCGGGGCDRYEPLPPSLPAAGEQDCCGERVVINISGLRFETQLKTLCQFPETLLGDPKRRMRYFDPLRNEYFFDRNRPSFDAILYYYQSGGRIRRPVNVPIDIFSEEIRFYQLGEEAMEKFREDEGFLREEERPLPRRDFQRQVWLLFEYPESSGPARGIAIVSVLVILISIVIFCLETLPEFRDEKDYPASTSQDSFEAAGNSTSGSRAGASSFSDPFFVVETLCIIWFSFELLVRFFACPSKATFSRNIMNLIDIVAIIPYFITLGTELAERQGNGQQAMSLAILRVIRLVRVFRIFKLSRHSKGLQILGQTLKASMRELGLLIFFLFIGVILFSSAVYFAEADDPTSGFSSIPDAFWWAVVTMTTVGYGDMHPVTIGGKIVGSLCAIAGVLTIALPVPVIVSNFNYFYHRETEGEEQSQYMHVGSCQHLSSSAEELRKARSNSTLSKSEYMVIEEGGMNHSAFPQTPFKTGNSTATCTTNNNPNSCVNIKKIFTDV

For `CC[C@H](C)[C@@H]1NC(=O)[C@@H](NC(=O)[C@H](CO)NC(=O)[C@H](C)N)CSSC[C@@H](C(=O)O)NC(=O)[C@H]([C@@H](C)O)NC(=O)CNC(=O)[C@@H]2CSSC[C@@H]3NC(=O)[C@H](CCC(N)=O)NC(=O)[C@H](Cc4ccccc4)NC(=O)[C@H](C)NC(=O)[C@H]([C@@H](C)O)NC(=O)[C@H](CSSC[C@H](NC(=O)[C@H](Cc4ccccc4)NC(=O)[C@H](CO)NC(=O)[C@H](CC(C)C)NC(=O)[C@H](CCCNC(=N)N)NC(=O)[C@H](Cc4ccc(O)cc4)NC(=O)[C@H](CCCCN)NC(=O)[C@H](CCSC)NC(=O)[C@H](CO)NC(=O)[C@H](Cc4c[nH]cn4)NC(=O)[C@H](CCCCN)NC3=O)C(=O)N[C@@H](CCCNC(=N)N)C(=O)N[C@@H](CCCCN)C(=O)N[C@@H]([C@@H](C)O)C(=O)N2)NC(=O)[C@H](CCCNC(=N)N)NC(=O)[C@H](CO)NC(=O)[C@H](CCCCN)NC(=O)[C@@H]2CCCN2C(=O)[C@H]([C@@H](C)CC)NC(=O)[C@H]([C@@H](C)O)NC(=O)[C@H](CC(=O)O)NC1=O` [[Ala1]ShK], the half-maximal inhibitory concentration (IC50) against hKv1.3 was 0.168 nM; in experiment [1], 0.073 nM; in experiment [2] it was 0.102 nM.
On the same counts, the results for `CC[C@H](C)[C@@H]1NC(=O)[C@@H](NC(=O)[C@H](CO)NC(=O)[C@@H](N)CCCNC(=N)N)CSSC[C@@H](C(=O)O)NC(=O)[C@H]([C@@H](C)O)NC(=O)CNC(=O)[C@@H]2CSSC[C@@H]3NC(=O)[C@H](CCC(N)=O)NC(=O)[C@H](Cc4ccccc4)NC(=O)[C@H](C)NC(=O)[C@H]([C@@H](C)O)NC(=O)[C@H](CSSC[C@H](NC(=O)[C@H](Cc4ccccc4)NC(=O)[C@H](CO)NC(=O)[C@H](CC(C)C)NC(=O)[C@H](CCCNC(=N)N)NC(=O)[C@H](Cc4ccc(O)cc4)NC(=O)[C@H](CCCCN)NC(=O)[C@H](CCSC)NC(=O)[C@H](CO)NC(=O)[C@H](Cc4c[nH]cn4)NC(=O)[C@H](CCCCN)NC3=O)C(=O)N[C@@H](CCCNC(=N)N)C(=O)N[C@@H](CCCCN)C(=O)N[C@@H]([C@@H](C)O)C(=O)N2)NC(=O)[C@H](CCCNC(=N)N)NC(=O)[C@H](CO)NC(=O)[C@H](CCCCN)NC(=O)[C@@H]2CCCN2C(=O)[C@H](C)NC(=O)[C@H]([C@@H](C)O)NC(=O)[C@H](CC(=O)O)NC1=O` [[Ala7]ShK] are 0.188 nM, 0.886 nM and 2.22 nM.
The corresponding values for `CC[C@H](C)[C@@H]1NC(=O)[C@@H](NC(=O)[C@H](CO)NC(=O)[C@@H](N)CCCNC(=N)N)CSSC[C@@H](C(=O)O)NC(=O)[C@H]([C@@H](C)O)NC(=O)CNC(=O)[C@@H]2CSSC[C@@H]3NC(=O)[C@H](CCC(N)=O)NC(=O)[C@H](Cc4ccccc4)NC(=O)[C@H](C)NC(=O)[C@H]([C@@H](C)O)NC(=O)[C@H](CSSC[C@H](NC(=O)[C@H](Cc4ccccc4)NC(=O)[C@H](CO)NC(=O)[C@H](CC(C)C)NC(=O)[C@H](CCCNC(=N)N)NC(=O)[C@H](Cc4ccc(O)cc4)NC(=O)[C@H](CCCCN)NC(=O)[C@H](CCSC)NC(=O)[C@H](CO)NC(=O)[C@H](Cc4c[nH]cn4)NC(=O)[C@H](CCCCN)NC3=O)C(=O)N[C@@H](CCCNC(=N)N)C(=O)N[C@@H](CCCCN)C(=O)N[C@@H]([C@@H](C)O)C(=O)N2)NC(=O)[C@H](CCCNC(=N)N)NC(=O)[C@H](CO)NC(=O)[C@H](CCCCN)NC(=O)[C@H](C)NC(=O)[C@H]([C@@H](C)CC)NC(=O)[C@H]([C@@H](C)O)NC(=O)[C@H](CC(=O)O)NC1=O` [[Ala8]ShK] are 0.078 nM, 0.039 nM and 0.061 nM.
On to `CC[C@H](C)[C@@H]1NC(=O)[C@@H](NC(=O)[C@H](CO)NC(=O)[C@@H](N)CCCNC(=N)N)CSSC[C@@H](C(=O)O)NC(=O)[C@H]([C@@H](C)O)NC(=O)CNC(=O)[C@@H]2CSSC[C@@H]3NC(=O)[C@H](CCC(N)=O)NC(=O)[C@H](Cc4ccccc4)NC(=O)[C@H](C)NC(=O)[C@H]([C@@H](C)O)NC(=O)[C@H](CSSC[C@H](NC(=O)[C@H](Cc4ccccc4)NC(=O)[C@H](CO)NC(=O)[C@H](CC(C)C)NC(=O)[C@H](CCCNC(=N)N)NC(=O)[C@H](Cc4ccc(O)cc4)NC(=O)[C@H](CCCCN)NC(=O)[C@H](CCSC)NC(=O)[C@H](CO)NC(=O)[C@H](Cc4c[nH]cn4)NC(=O)[C@H](CCCCN)NC3=O)C(=O)N[C@@H](CCCNC(=N)N)C(=O)N[C@@H](CCCCN)C(=O)N[C@@H]([C@@H](C)O)C(=O)N2)NC(=O)[C@H](CCCNC(=N)N)NC(=O)[C@H](CO)NC(=O)[C@H](C)NC(=O)[C@@H]2CCCN2C(=O)[C@H]([C@@H](C)CC)NC(=O)[C@H]([C@@H](C)O)NC(=O)[C@H](CC(=O)O)NC1=O` [[Ala9]ShK], for which the values for the IC50 (against hKv1.3; in experiment [1]; in experiment [2]) were 0.116 nM, 0.053 nM and 0.103 nM, respectively.
Regarding `CCCC[C@@H]1NC(=O)[C@H](CO)NC(=O)[C@H](Cc2c[nH]cn2)NC(=O)[C@H](CCCCN)NC(=O)[C@@H]2CSSC[C@@H]3NC(=O)[C@H]([C@@H](C)O)NC(=O)[C@H](CCCNC(=N)N)NC(=O)[C@H](CCCNC(=N)N)NC(=O)[C@H](CSSC[C@H](NC(=O)[C@H](CCCNC(=N)N)NC(=O)[C@H](CO)NC(=O)[C@H](CCCCN)NC(=O)[C@@H]4CCCN4C(=O)[C@H]([C@@H](C)CC)NC(=O)[C@H]([C@@H](C)O)NC(=O)[C@H](CC(=O)O)NC(=O)[C@H]([C@@H](C)CC)NC(=O)[C@@H](NC(=O)[C@H](CO)NC(=O)[C@@H](N)CCCNC(=N)N)CSSC[C@@H](C(N)=O)NC(=O)[C@H]([C@@H](C)O)NC(=O)CNC3=O)C(=O)N[C@@H]([C@@H](C)O)C(=O)N[C@@H](C)C(=O)N[C@@H](C)C(=O)N[C@@H](CCCCN)C(=O)N2)NC(=O)[C@H](Cc2ccccc2)NC(=O)[C@H](CO)NC(=O)[C@H](CC(C)C)NC(=O)[C@H](CCCNC(=N)N)NC(=O)[C@H](Cc2ccc(O)cc2)NC(=O)[C@H](CCCCN)NC1=O` [[Ala15, Lys16, Nle21,Arg30]ShK-amide], the IC50 at hKv1.3 turned out to be 0.329 nM; in experiment [1], 1.35 nM; in experiment [2] it was 1.71 nM.
The corresponding values for `CCCC[C@@H]1NC(=O)[C@H](CO)NC(=O)[C@H](Cc2c[nH]cn2)NC(=O)[C@H](CCCCN)NC(=O)[C@@H]2CSSC[C@@H]3NC(=O)[C@H]([C@@H](C)O)NC(=O)[C@H](CCCCN)NC(=O)[C@H](CCCNC(=N)N)NC(=O)[C@H](CSSC[C@H](NC(=O)[C@H](CCCNC(=N)N)NC(=O)[C@H](CO)NC(=O)[C@H](CCCCN)NC(=O)[C@@H]4CCCN4C(=O)[C@H]([C@@H](C)CC)NC(=O)[C@H]([C@@H](C)O)NC(=O)[C@H](CC(=O)O)NC(=O)[C@H]([C@@H](C)CC)NC(=O)[C@@H](NC(=O)[C@H](CO)NC(=O)[C@@H](N)CCCNC(=N)N)CSSC[C@@H](C(N)=O)NC(=O)[C@H]([C@@H](C)O)NC(=O)CNC3=O)C(=O)N[C@@H]([C@@H](C)O)C(=O)N[C@@H](C)C(=O)N[C@@H](C)C(=O)N[C@@H](CCCCN)C(=O)N2)NC(=O)[C@H](Cc2ccccc2)NC(=O)[C@H](CO)NC(=O)[C@H](CC(C)C)NC(=O)[C@H](CCCNC(=N)N)NC(=O)[C@H](Cc2ccc(O)cc2)NC(=O)[C@H](CCCCN)NC1=O` [[Ala15, Lys16,Nle21]ShK-amide] are 0.127 nM, 0.952 nM and 1.87 nM.
Take `CC[C@H](C)[C@@H]1NC(=O)[C@@H](NC(=O)[C@H](CO)NC(=O)[C@@H](N)CCCNC(=N)N)CSSC[C@@H](C(=O)O)NC(=O)[C@H]([C@@H](C)O)NC(=O)CNC(=O)[C@@H]2CSSC[C@@H]3NC(=O)[C@H](CCCCN)NC(=O)[C@H](C)NC(=O)[C@H](C)NC(=O)[C@H]([C@@H](C)O)NC(=O)[C@H](CSSC[C@H](NC(=O)[C@H](Cc4ccccc4)NC(=O)[C@H](CO)NC(=O)[C@H](CC(C)C)NC(=O)[C@H](CCCNC(=N)N)NC(=O)[C@H](Cc4ccc(O)cc4)NC(=O)[C@H](CCCCN)NC(=O)[C@H](CCSC)NC(=O)[C@H](CO)NC(=O)[C@H](Cc4c[nH]cn4)NC(=O)[C@H](CCCCN)NC3=O)C(=O)N[C@@H](CCCNC(=N)N)C(=O)N[C@@H](CCCCN)C(=O)N[C@@H]([C@@H](C)O)C(=O)N2)NC(=O)[C@H](CCCNC(=N)N)NC(=O)[C@H](CO)NC(=O)[C@H](CCCCN)NC(=O)[C@@H]2CCCN2C(=O)[C@H]([C@@H](C)CC)NC(=O)[C@H]([C@@H](C)O)NC(=O)[C@H](CC(=O)O)NC1=O` [[Ala15, Lys16]ShK]: the 50% inhibitory concentration (IC50) came out at 0.96 nM against hKv1.3, 0.057 nM in experiment [1] and 0.052 nM in experiment [2].
The corresponding values for `CC[C@H](C)[C@@H]1NC(=O)[C@@H](NC(=O)[C@H](CO)NC(=O)[C@@H](N)CCCNC(=N)N)CSSC[C@@H](C(N)=O)NC(=O)[C@H]([C@@H](C)O)NC(=O)CNC(=O)[C@@H]2CSSC[C@@H]3NC(=O)[C@H](CCCCN)NC(=O)[C@H](C)NC(=O)[C@H](C)NC(=O)[C@H]([C@@H](C)O)NC(=O)[C@H](CSSC[C@H](NC(=O)[C@H](Cc4ccccc4)NC(=O)[C@H](CO)NC(=O)[C@H](CC(C)C)NC(=O)[C@H](CCCNC(=N)N)NC(=O)[C@H](Cc4ccc(O)cc4)NC(=O)[C@H](CCCCN)NC(=O)[C@H](CCSC)NC(=O)[C@H](CO)NC(=O)[C@H](Cc4c[nH]cn4)NC(=O)[C@H](CCCCN)NC3=O)C(=O)N[C@@H](CCCNC(=N)N)C(=O)N[C@@H](CCCCN)C(=O)N[C@@H]([C@@H](C)O)C(=O)N2)NC(=O)[C@H](CCCNC(=N)N)NC(=O)[C@H](CO)NC(=O)[C@H](CCCCN)NC(=O)[C@@H]2CCCN2C(=O)[C@H]([C@@H](C)CC)NC(=O)[C@H]([C@@H](C)O)NC(=O)[C@H](CC(=O)O)NC1=O` [[Ala15,Lys16]ShK-amide] are 0.091 nM, 0.167 nM and 0.193 nM.

For orientation: IC50 means the concentration that inhibits the measured activity by half.
